US20140242093A1, “METHODS AND COMPOSITIONS FOR MODULATING THE INNATE IMMUNE RESPONSE AND/OR MYOGENESIS IN A MAMMALIAN SUBJECT” (FRED HUTCHINSON CANCER RESEARCH CENTER, priority 2011, published 2014)

Test system: control human primary myoblasts
Assay: Expression microarray of primary myoblasts transduced with lentivirus carrying DUX4-fl, DUX4-s or GFP
Details: cultured human skeletal muscle
Protocol: Primary human myoblasts were collected and cultured as previously described (Snider et al., 2010). Primary myoblasts were maintained at or below 70% confluency for proliferation. For differentiation, cells were allowed to reach 95-100% confluency in growth medium. Once confluency was reached, the cells were changed to differentiation medium (F10 media supplemented with 1% horse serum, 10 μg/mL insulin, and 10 μg/mL transferrin, penicillin/streptomycin) and maintained for 4 days. Human RD cells were grown in DMEM in 10% bovine calf serum (Hyclone) and penicillin/streptomycin. The primary myoblasts were transduced with lentivirus carrying DUX-fl, DUX4- or GFP (MOI=15).
Expression microarrays were performed on the transduced cells at 24 hours after transduction as follows. […] Samples were analyzed by Illumina Human Whole Genome microarrays. Probe intensities were corrected, normalized, and summarized by the Lumi package of Bioconductor (Du et al., 2008). Differentially expressed genes were identified by the LIMMA package of Bioconductor (Wettenhall and Smyth, 2004). Gene set enrichment analysis (GSEA) was performed using the Bioconductor GOstats package (Falcon and Gentleman, 2007).

In the case of “DUX4-fl: full-length DUX4 protein (SEQ ID NO:110), expressed from lentiviral or pCS2 vectors or in vitro translated”, the MT1A expression fc was −1.526, the MT2A expression fc was −1.443 and the MUC1 expression fc was −1.74. The MYBPHL expression fc was −1.492, the MYF5 expression fc was −1.587 and the MYH13 expression fc was −1.441. The NACC2 expression fc was −1.787, the NFIL3 expression fc was −1.823 and the NFKB1 expression fc was −1.512. It also gave an NFKBIZ expression fc of −1.572, an NINJ1 expression fc of −1.694 and an NPTX2 expression fc of −1.386. For the same substance, the NRXN2 expression fc was −1.627, the NT5E expression fc was −1.558 and the OCEL1 expression fc was −1.412. For the same substance, the P2RX6 expression fc was −1.475, the PARP3 expression fc was −1.483 and the PCK2 expression fc was −1.776. For the same substance, the PCTK3 expression fc was −1.641, the PDK4 expression fc was −1.521 and the PDPN expression fc was −1.623. It also gave a PFKFB4 expression fc of −1.865, a PHF15 expression fc of −1.415 and a PHLDA3 expression fc of −1.557. The PLA2G4C expression fc was −1.429, the PLEKHA4 expression fc was −1.457 and the PLIN2 expression fc was −1.413. For the same substance, the PLXNB1 expression fc was −1.442, the PLXNB2 expression fc was −1.649 and the PPAP2B expression fc was −1.742. For the same substance, the PPP3CC expression fc was −1.457, the PRDM1 expression fc was −1.573 and the PRKCD expression fc was −1.531. It also gave a PSMB10 expression fc of −1.6, a PSME2 expression fc of −1.477 and a PTGES expression fc of −1.632. It also gave a PTPRU expression fc of −1.477, an RALGDS expression fc of −1.475 and an RBCK1 expression fc of −1.636. For the same substance, the RBM43 expression fc was −1.517, the RCAN1 expression fc was −1.566 and the RELB expression fc was −1.391. It also gave an RGS20 expression fc of −1.478, an RHBDF2 expression fc of −1.741 and an RRAS expression fc of −1.405. The RRBP1 expression fc was −1.483, the RTKN expression fc was −1.734 and the RTTN expression fc was −1.663. It also gave an RUSC1 expression fc of −1.47, an SERPING1 expression fc of −1.668 and an SESN1 expression fc of −1.581. It also gave an SHISA5 expression fc of −1.763, an SIX5 expression fc of −1.673 and an SLC16A3 expression fc of −1.582. It also gave an SLC22A18 expression fc of −1.56, an SLC25A28 expression fc of −1.534 and an SLC39A14 expression fc of −1.872. For the same substance, the SPTLC3 expression fc was −1.444, the SQSTM1 expression fc was −1.695 and the SRGN expression fc was −1.873. The STC1 expression fc was −1.571, the STEAP3 expression fc was −1.405 and the SUSD2 expression fc was −1.398. It also gave a TAPBP expression fc of −1.844, a TCEA3 expression fc of −1.706 and a TCP11L1 expression fc of −1.532. For the same substance, the TMEM45A expression fc was −1.574, the TMEM173 expression fc was −1.816 and the TNFAIP2 expression fc was −1.593. It also gave a TNFRSF1A expression fc of −1.672, a TNFRSF6B expression fc of −1.678 and a TNFSF13B expression fc of −1.763. The TNS3 expression fc was −1.56, the TRAF3IP2 expression fc was −1.529 and the TRIP6 expression fc was −1.457. The TRNP1 expression fc was −1.527, the TSC22D3 expression fc was −1.729 and the VASN expression fc was −1.76. The VEZF1 expression fc was −1.528 and the XBP1 expression fc was −1.679.
